Results: patent US9481915B2, “Method of screening drugs that promote LOXL1 expression” (SHANGHAI TENTH PEOPLE'S HOSPITAL, priority 2012, dated 2016)

How the values were obtained:
Assay type in all cases: cell-based
human LOXL1 promoter = experiment: PLOXL1-ZsGreen reporter: green fluorescence intensity of human fibroblasts
Procedure: S3. Drug screening: Inoculate the said human fibroblasts integrating PLOXL1-ZsGreen component into culture medium, incubate overnight. Dissolve the analyte into DMSO as 0.2-2 mg/ml, and dilute into 1:200, then add it into the cell culture medium, and its final concentration will be […]. After incubating overnight (37° C., 5% CO2), detect the green fluorescence intensity of these cells. The screening method of present invention decides if the analyte added stimulates the activity of human LOXL1 promoter effectively, and increases the expression of LOXL1, thus promotes the crosslinking of extracellular matrix protein, by checking if the green fluorescence intensity is increased.
Inoculate the said human fibroblasts integrating PLOXL1-ZsGreen component into culture medium with a density of 20%, keep adherent overnight. […] After culturing overnight (37° C., 5% CO2), detect the green fluorescence intensity of these cells. The present invention decides if the Chinese herbal extracts added stimulate the activity of human LOXL1 promoter effectively by checking if the green fluorescence intensity is increased. […]
Inoculate the said stably expressing human fibroblast strain integrating a expression cassette of PLOXL1-ZsGreen with a 20% density into media, keep adherent overnight (37° C., 5% CO2), detect the green fluorescence intensity of these cells. […]

[1] = test system: LOXL1 in human skin tissue; experiment: Real-time and western blot of LOXL1 and elastin monomer/dimer in cultured human skin tissue
Procedure: Emodin was added into the culture medium of human skin tissue. Detect the LOXL1 level in human skin tissue and elastin crosslinking level during 1˜3 days after emodin treatment. Detect the mRNA level and protein level of LOXL1 using Real-time and western blot methods, as well as detecting the amount of monomer and dimer of elastin. Wherein, the control with DMSO solvent added only is normalized to 1, data are calculated as Mean±SEM of three independent test values. *p<0.01, ***P<0.0001.

[2] = test system: extracellular matrix crosslinking in human fibroblasts; experiment: ELISA of desmosine and hydroxylproline (elastin and collagen crosslinking) in human fibroblast lines HF1 and HF2; conditions: different emodin concentrations
Procedure: Two human fibroblast cell lines integrating PLOXL1-ZsGreen components (HF1 and HF2) are inoculated at a density of 20%, incubated overnight (37° C., 5% CO2). Then, emodin is added into the culture medium. Detect the desmosine by ELISA method to determine the effects of different emodin concentrations to elastin crosslinking. This example determines the effects of different emodin concentrations to collagen crosslinking by detecting the contents of hydroxylproline through ELISA method. […] Thus, emodin promotes the crosslinking of extracellular matrix protein in human fibroblasts widely.

LOXL1 = experiment: Real-time and western blot of LOXL1 mRNA/protein and elastin dimer in human fibroblast lines HF1 and HF2; conditions: for expression of LOXL1 (mRNA and protein): 4 μM emodin, overnight; for formation of elastin dimer intermediate: different emodin concentrations
Procedure: Two human fibroblast cell lines integrating PLOXL1-ZsGreen components (HF1 and HF2) are inoculated at a density of 20%, incubated overnight (37° C., 5% CO2). […] After cultured overnight, Real-time and western blot are used to detect the mRNA level and protein level in LOXL1. Wherein, the one added DMSO solvent only works as the control, and is normalized to 1, data are calculated as Mean±SEM of three independent test values, *P<0.05; **P<0.001; ***P<0.0001. […] In these two cell lines, the expression of LOXL1 is not only linearly correlated to transcriptional level, but to LOXL1 protein level, and accomplishing elastin dimer intermediates formation.

SMILES: Cc1cc(O)c2c(c1)C(=O)c1cc(O)cc(O)c1C2=O [emodin]
- activity of human LOXL1 promoter (ZsGreen fluorescent intensity) (human LOXL1 promoter; Example 4, FIG. 4a, 4 μM emodin): obvious promotion to the activity of human LOXL1 promoter
- fluorescent intensity of ZsGreen vs emodin concentration (human LOXL1 promoter; Example 4, FIG. 4c, DMSO control normalized to 1): increases with the concentration of emodin, with a significant linear relationship
- LOXL1 protein level ([1]; 4 μM emodin, FIG. 7b): significantly promotes the LOXL1 protein level
- elastin intermediate dimers ([1]; 4 μM emodin, FIG. 7c): increase of intermediate dimers
- elastin monomers ([1]; 4 μM emodin, FIG. 7c): decrease of elastin monomers
- LOXL1 mRNA level ([1]; different emodin concentrations, 1-3 days, FIG. 7a): increases as the emodin concentration increases
- desmosine intermediates (elastin crosslinking) ([2]; HF1, FIG. 6a1): increase with the increasing concentrations of emodin added
- hydroxylproline intermediate (collagen crosslinking) ([2]; HF1, FIG. 6a2): also increases with the increasing concentrations of emodin added
- desmosine intermediates (elastin crosslinking) ([2]; HF2, FIG. 6b1): increase with the increasing concentrations of emodin added
- hydroxylproline intermediate (collagen crosslinking) ([2]; HF2, FIG. 6b2): also increases with the increasing concentrations of emodin added
- expression of LOXL1 (mRNA and protein) (LOXL1; HF1 cell line, FIGS. 5a1-5a2): significantly promotes the expression of LOXL1
- formation of elastin dimer intermediate (LOXL1; HF1 cell line, FIG. 5a3): promotion of different emodin concentration to the expression of LOXL1 and the formation of elastin dimer intermediate
- expression of LOXL1 (mRNA and protein) (LOXL1; HF2 cell line, FIGS. 5b1-5b2): significantly promotes the expression of LOXL1
- formation of elastin dimer intermediate (LOXL1; HF2 cell line, FIG. 5b3): promotion of different emodin concentration to the expression of LOXL1 and the formation of elastin dimer intermediate
